Assay results: patent US20220298115A1, “SMALL MOLECULE INHIBITORS OF ACETYL COENZYME A SYNTHETASE SHORT CHAIN 2 (ACSS2)” (Curadev Pharma Pvt. Ltd., priority 2019, published 2022)
pIC50: −log10 of the molar value.

Tests used:
[1] = tested on: [14C] acetate incorporation in macromolecules, BT474 cells; assay: Cell based [14C] acetate incorporation assay; details: Homo sapiens, BT-474, 3 h at 37° C., read-out: Cellular Activity (IC50 range)
Method: Cell Based [^14C] Acetate Incorporation Assay
In the cellular assay, ACSS2 inhibitors were screened against [^14C] acetate incorporation in macromolecules. 4×10^4 BT474 cells were plated in 96 well plates in growth media composed of DMEM & 10% FBS and incubated overnight in a 37° C., 5% CO2 incubator. The following day the cells were washed in HBSS and the assay was performed in 100 μl of HBSS. 50 μl of 4× compound in 4% DMSO was added to the cells and preincubated for 10 min. at 37° C. 50 μl of acetate solution (0.1 μCi ^14C acetate+10 μM ^12C acetate) was added to each well of the plate and incubated for 3 h in a 37° C., 5% CO2 incubator. Following incubation, cells were harvested with water on polyethylene imine (PEI) presoaked GF/C filtermat, air dried and radioactive count were recorded in Trilux micro beta Liquid Scintillation Counter (PerkinElmer).

[2] = target: T1, human ACSS2 (Homo sapiens, UniProt Q9NR19); assay: ACSS2 enzyme assay (acetyl-CoA formation, LC-MS/MS); format: biochemical; details: cytosolic fraction of BT474 cells as ACSS2 source; 100 μM acetate, CoA and ATP; 2 h at 25° C.; read-out: Enzyme Activity (IC50 range)
T1 construct: The cytosolic fraction of BT474 cells was used as a source of the ACSS2 enzyme; endogenous in cells; host or cells: BT474 cells (cytosolic fraction)
T1 sequence (Q9NR19 whole entry): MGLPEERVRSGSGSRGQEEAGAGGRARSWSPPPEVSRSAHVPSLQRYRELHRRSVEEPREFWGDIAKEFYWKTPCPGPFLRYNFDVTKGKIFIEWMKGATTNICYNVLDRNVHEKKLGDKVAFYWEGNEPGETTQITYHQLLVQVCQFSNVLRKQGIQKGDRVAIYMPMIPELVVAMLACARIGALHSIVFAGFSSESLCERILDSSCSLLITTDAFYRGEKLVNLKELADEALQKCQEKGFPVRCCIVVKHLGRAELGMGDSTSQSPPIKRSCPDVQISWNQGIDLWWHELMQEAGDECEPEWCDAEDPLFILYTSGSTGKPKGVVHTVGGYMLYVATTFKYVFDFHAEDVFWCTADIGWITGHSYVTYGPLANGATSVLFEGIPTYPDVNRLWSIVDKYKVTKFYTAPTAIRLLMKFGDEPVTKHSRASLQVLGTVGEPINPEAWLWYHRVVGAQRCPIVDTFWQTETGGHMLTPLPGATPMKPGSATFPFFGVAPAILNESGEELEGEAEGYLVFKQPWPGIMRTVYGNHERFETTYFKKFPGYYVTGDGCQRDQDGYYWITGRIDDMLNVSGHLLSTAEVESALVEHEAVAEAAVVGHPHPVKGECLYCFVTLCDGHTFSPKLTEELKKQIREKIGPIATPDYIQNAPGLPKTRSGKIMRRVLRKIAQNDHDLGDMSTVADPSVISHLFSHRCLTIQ
Method: Novel compounds were screened in a human ACSS2 enzyme assay. Briefly, the ACSS2 enzyme reaction was monitored by directly measuring acetyl-CoA formation. The cytosolic fraction of BT474 cells was used as a source of the ACSS2 enzyme. A short protocol for this assay is provided below.
Preparation of Cytosolic Fraction from BT474 Cells
9×10^6 cells were harvested by trypsinization followed by centrifugation. The cell pellet was washed with PBS and dissolved in 500 μl STM buffer (50 mM Tris-HCl pH7.4, 250 mM sucrose, 5 mM MgCl2 & protease-phosphatase inhibitor cocktail) and homogenized at 600-1000 rpm for 1 min. on ice followed by incubation for 30 min. with intermittent vortexing. Supernatant was collected by centrifugation at 800 g for 15 min. at 4° C. Cytosolic fraction was prepared by further centrifugation of the supernatant at 12000 g for 15 min. at 4° C. Total protein content of the cytosolic fraction was estimated & diluted to 1 mg/ml concentration in storage buffer (25 mM Tris-HCl pH7.4, 1 mM MgCl2, 1 mM DTT & 10% glycerol) and stored at −80° C. for further use.
100 ng of cytosolic fraction in buffer composed of 25 mM Tris-HCl pH7.4 1 mM MgCl2, 1 mM DTT & 0.05% Tween20 was preincubated with desired concentrations of novel compounds for 5 min. maintaining 1% DMSO. Reaction was started with addition of substrate mix (100 μM of acetate, CoA and ATP) and incubated for 2 h at 25° C. with constant shaking at 500 rpm. Post incubation the reaction was terminated by addition of 10% TCA followed by 5 fold dilution in water. The reaction mixture was centrifuged at 800 g for 10 min. at RT and acetyl-CoA detected in supernatant by LC-MS/MS (QTrap5500 ABSCIEX).

Compound | pIC50 [1] | pIC50 [2]
COCCNC(=O)Nc1ccc2nc(C)c(-c3ccccc3F)cc2c1 [Example 116, 1-(3-(2-fluorophenyl)-2-methylquinolin-6-yl)-3-(2-methoxyethyl) urea] | > 7.00 | ≥ 6.00
CC[C@H](O)CNC(=O)Nc1ccc2nc(-c3ccccc3F)c(-c3ccccc3F)cc2c1 [Example 28, (S)-1-(2,3-bis(2-fluorophenyl)quinolin-6-yl)-3-(2-hydroxybutyl) urea] | > 7.00 | > 7.00
CCC(=O)CCC(=O)Nc1ccc2nc(-c3ccccc3F)c(-c3ccccc3)cc2c1 [Example 123, N-(2-(2-fluorophenyl)-3-phenyl-quinolin-6-yl)-4-oxohexan-amide] | > 7.00 | > 7.00
CC[C@@H](O)CNC(=O)Nc1ccc2nc(C)c(-c3ccccc3F)cc2c1-c1ccc[nH]c1=O [Example 111, (R)-1-(3-(2-fluorophenyl)-2-methyl-5-(2-oxo-1,2-dihydropyridin-3-yl)quinolin-6-yl)-3-(2-hydroxybutyl) urea] | ≥ 6.00 | > 7.00
CCC(O)CNC(=O)Nc1ccc2nc(-c3cccc(F)c3)c(-c3ccccc3F)cc2c1 (centres unmarked) [Example 46, 1-(3-(2-fluorophenyl)-2-(3-fluorophenyl)quinolin-6-yl)-3-(2-hydroxybutyl) urea] | > 7.00 | > 7.00
CCC(O)CNC(=O)Nc1ccc2nc(C3CCCCC3)c(-c3ccccc3F)cc2c1 (centres unmarked) [Example 39, 1-(2-cyclohexyl-3-(2-fluorophenyl)quinolin-6-yl)-3-(2-hydroxybutyl) urea] | ≥ 5.00 | < 5.00
CC[C@@H](O)CNC(=O)Nc1ccc2nc(-c3ccccc3)c(-c3ccccc3)cc2c1 [Example 2, (R)-1-(2,3-diphenylquinolin-6-yl)-3-(2-hydroxybutyl) urea] | > 7.00 | > 7.00
CCC(O)CNC(=O)Nc1ccc2nc(-c3ccccc3OCC(C)C)c(-c3ccccc3)cc2c1 (centres unmarked) [Example 59, 1-(2-hydroxybutyl)-3-(2-(2-isobutoxyphe-nyl)-3-phenylquinolin-6-yl)urea] | > 7.00 | > 7.00
CCC(O)CNC(=O)Nc1ccc2nc(C)c(C)c(C(N)=O)c2c1 (centres unmarked) [Example 69, 6-(3-(2-hydroxybutyl)ureido)-2,3-dimethylquino-line-4-carboxamide] | < 5.00 | ≥ 5.00
CCC(O)CNC(=O)Nc1ccc2nc(-c3cccnc3)c(-c3cccnc3)cc2c1 (centres unmarked) [Example 19, 1-(2,3-di(pyridin-3-yl)quinolin-6-yl)-3-(2-hydroxybutyl) urea] | ≥ 5.00 | > 7.00
CCCCC(F)(F)C(=O)Nc1ccc2nc(-c3ccccc3)c(-c3ccccc3)cc2c1 [Example 122, N-(2,3-diphenyl-quinolin-6-yl)-2,2-difluoro-hexanamide] | < 5.00 | ≥ 5.00
CCC(O)CNC(=O)Nc1ccc2nc(C)c(-c3ccccc3)c(C(N)=O)c2c1 (centres unmarked) [Example 66, 6-(3-(2-hydroxybutyl)ureido)-2-methyl-3-phenylquinoline-4-carboxamide] | ≥ 6.00 | > 7.00
CCC(O)CNC(=O)Nc1ccc2nc(C)c(-c3ccccc3C)cc2c1 (centres unmarked) [Example 80, 1-(2-hydroxybutyl)-3-(2-methyl-3-(o-tolyl)quinolin-6-yl)urea] | > 7.00 | > 7.00
CCC(F)(F)CNC(=O)Nc1ccc2nc(-c3ccccc3)c(-c3ccccc3)c(C(N)=O)c2c1 [Example 106, 6-(3-(2,2-difluorobutyl)ureido)-2,3-diphenylquino-line-4-carboxamide] | > 7.00 | > 7.00
O=C(Nc1ccc2nc(-c3ccccc3)c(-c3ccccc3)cc2c1)NC1(CO)CCCC1 [Example 143, 1-(2,3-diphenylquinolin-6-yl)-3-(1-(hydroxymethyl)cyclopentyl) urea] | ≥ 5.00 | < 5.00
CCC(O)CNC(=O)Nc1ccc2nc(-c3ccccc3N(C)C)c(-c3ccccc3F)cc2c1 (centres unmarked) [Example 33, 1-(2-(2-(dimethylamino)phenyl)-3-(2-fluorophenyl)quinolin-6-yl)-3-(2-hydroxybutyl) urea] | > 7.00 | > 7.00

Compound | pIC50 [1] | pIC50 [2]
CCCCNC(=O)Nc1ccc2nc(-c3ccccc3F)c(-c3ccccc3F)cc2c1 [Example 14, 1-(2,3-bis(2-fluorophenyl)quinolin-6-yl)-3-butylurea] | > 7.00 | > 7.00
CC[C@@H](O)CNC(=O)Nc1ccc2nc(C)c(-c3ccccc3)cc2c1 [Example 72, (R)-1-(2-Hydroxybutyl)-3-(2-methyl-3-phenylquinolin-6-yl)urea] | > 7.00 | > 7.00
CCC(O)CNC(=O)Nc1ccc2nc(-c3ccccc3)c(-c3ccccc3)c(C#N)c2c1 (centres unmarked) [Example 70, 1-(4-cyano-2,3-diphenylquino-lin-6-yl)-3-(2-hydroxybutyl) urea] | > 7.00 | > 7.00
CCC(O)CNC(=O)Nc1ccc2nc(C)c(-c3cnn(C)c3)cc2c1 (centres unmarked) [Example 82, 1-(2-hydroxybutyl)-3-(2-methyl-3-(1-methyl-1H-pyrazol-4-yl)quinolin-6-yl)urea] | < 5.00 | ≥ 6.00
CCC(O)CNC(=O)Nc1ccc2nc(-c3ccc(OC)nc3)c(-c3ccc(OC)nc3)cc2c1 (centres unmarked) [Example 11, 1-(2,3-bis(6-methoxypyridin-3-yl)quinolin-6-yl)-3-(2-hydroxybutyl) urea] | ≥ 5.00 | ≥ 6.00
CCC(O)CNC(=O)Nc1ccc2nc(-c3cccnc3OC)c(-c3cccnc3OC)cc2c1 (centres unmarked) [Example 13, 1-(2,3-bis(2-methoxypyridin-3-yl)quinolin-6-yl)-3-(2-hydroxybutyl) urea] | ≥ 6.00 | ≥ 6.00
CCC(O)CNC(=O)Nc1ccc2nc(-c3ccccc3)c(-c3ccccc3)c(C(=O)NC)c2c1 (centres unmarked) [Example 62, 6-(3-(2-hydroxybutyl)ureido)-N-methyl-2,3-diphenylquino-line-4-carboxamide] | > 7.00 | > 7.00
CCCCNC(=O)Nc1ccc2nc(-c3ccccc3)c(-c3ccccc3)cc2c1 [Example 3, 1-butyl-3-(2,3-diphenylquinolin-6-yl)urea] | > 7.00 | > 7.00
CCC(O)CNC(=O)Nc1ccc2nc(-c3cccnc3)c(-c3ccccc3F)cc2c1 (centres unmarked) [Example 31, 1-(3-(2-fluorophenyl)-2-(pyridin-3-yl)quinolin-6-yl)-3-(2-hydroxybutyl) urea] | > 7.00 | > 7.00
CCC(O)CNC(=O)Nc1ccc2nc(CCc3ccccc3)c(-c3ccccc3)cc2c1 (centres unmarked) [Example 56, 1-(2-hydroxybutyl)-3-(2-phenethyl-3-phenylquinolin-6-yl)urea] | ≥ 5.00 | ≥ 5.00
CC[C@@H](O)CNC(=O)Nc1ccc2nc(-c3ccccc3)c(C)c(C(=O)NC)c2c1 [Example 108, (R)-6-(3-(2-hydroxybutyl)ureido)-N,3-dimethyl-2-phenylquinoline-4-carboxamide] | > 7.00 | > 7.00
CCC(O)CNC(=O)Nc1ccc2nc(-c3ccccc3)c(-c3ccccc3)c(NC(C)=O)c2c1 (centres unmarked) [Example 84, N-(6-(3-(2-hydroxybutyl)ureido)-2,3-diphenylquinolin-4-yl)acetamide] | > 7.00 | > 7.00
COC1CCN(C(=O)Nc2ccc3nc(-c4ccccc4)c(-c4ccccc4)cc3c2)C1 (centres unmarked) [Example 138, N-(2,3-diphenylquinolin-6-yl)-3-methoxypyrrol-idine-1-carboxamide] | > 7.00 | > 7.00
CCC(O)CNC(=O)Nc1ccc2nc(C)c(-c3cccnc3)cc2c1 (centres unmarked) [Example 79, 1-(2-hydroxybutyl)-3-(2-methyl-3-(pyridin-3-yl)quinolin-6-yl)urea] | ≥ 6.00 | > 7.00
CCC(O)CNC(=O)Nc1ccc2nc(-c3ccccc3)c(-c3ccccc3)c(C(=O)N(C)C)c2c1 (centres unmarked) [Example 63, 6-(3-(2-hydroxybutyl)ureido)-N,N-dimethyl-2,3-diphenylquino-line-4-carboxamide] | > 7.00 | > 7.00
